The values that follow come from PMC10054634, “Chemical Constituents of Thesium chinense Turcz and Their In Vitro Antioxidant, Anti-Inflammatory and Cytotoxic Activities” (Molecules, 2023).

In data set [1] the test system is NCI-H292. The experiment in a line: Cytotoxic assay (CCK-8), NCI-H292. It is filed as cell-based, human. Particulars: NCI-H292, 48 h, mean ± SD (n = 3). The procedure:
(§1) Four human cancer cell lines, A549, NCI-H292, SiHa and MKN45, were purchased from the Cell Bank of the Chinese Academy of Sciences (Shanghai, China). […] Cisplatin (Abmole Bioscience, Shanghai, China) was used as positive control.
(§2) A total of 180 μL of cancer cells (5 × 10^3) were plated in each well of 96-well plates and cultured for 24 h, then the supernatant of the culture was discarded and 180 μL complete medium with different concentrations of test samples were added into triplicate wells of each cell line, respectively. Thereafter, A549, NCI-H292, SiHa and MKN45 were incubated for 48 h, respectively. The cell viability was evaluated by Cell Counting Kit-8 (CCK-8, Best Bio., Beijing, China), respectively. The experiments were performed in triplicate, and the data were expressed as the means ± SD of three independent experiments.

Data set [2] deals with A549. The experiment in a line: Cytotoxic assay (CCK-8), A549. Particulars: A549, 48 h, mean ± SD (n = 3). In kind it is cell-based, human. The procedure: as §1, §2
Data set [3] concerns MKN45. Briefly: Cytotoxic assay (CCK-8), MKN45. In kind it is cell-based, human. The conditions noted are these: mean ± SD (n = 3). The procedure: as §1, §2
In data set [4] the test system is SiHa. The experiment in a line: Cytotoxic assay (CCK-8), SiHa. The conditions noted are these: 48 h, mean ± SD (n = 3). In kind it is cell-based, human. The procedure:
as §1, §2

The nature of data set [5]: Cytotoxicity in RAW 264.7 cells (CCK-8). The conditions noted are these: mouse.
Procedure: The cell viability was determined by the CCK-8 assay method. The cytotoxicity was calculated from the plotted results using untreated cells at 100%.
Data set [6] deals with NO production in LPS-activated RAW 264.7 cells. The experiment in a line: Inhibition of NO production in LPS-activated RAW 264.7 cells (Griess reaction). In kind it is cell-based. The conditions noted are these: Mus musculus, read-out: IC50 (NO inhibitory activity). The procedure: The macrophage RAW 264.7 cells were obtained from the Cell Bank of the Chinese Academy of Sciences (Shanghai, China). A total of 180 μL of RAW 264.7 cells (1 × 10^4) were plated respectively in each well of 96-well plate and cultured for 24 h, then the supernatant of the culture was discarded and 180 μL complete medium with 1 μg/mL LPS and different concentrations of test samples were added into triplicate wells for 24 h. The inhibition effects on LPS-stimulated NO production was evaluated by the Griess reaction assay. The experiments were performed in triplicate, and the data were expressed as the means ± SD of three independent experiments.

Data set [7] in a line: DPPH radical scavenging assay. The conditions noted are these: for SC50: concentration required for 50% reduction of DPPH radicals, 37 °C, 30 min, 517 nm, nc = SC50 cannot be calculated due to weak or no related activities. The procedure:
The 2, 2-diphenyl-1-picrylhydrazyl (Aldrich Chem. Co. Ltd, Shanghai, China) radical scavenging activity assay was performed according to the previously published method with some modification. Test samples were dissolved in MeOH to six different concentrations ranging from 3.125 to 100 μM. Then, 100 μL of 100 μM DPPH in MeOH were mixed with 100 μL of samples at different concentrations in the wells of 96-well plates. The reaction mixtures were incubated in the dark at 37 °C for 30 min and then measured at 517 nm. Ascorbic acid was used as the positive control. The scavenging activity (SC) was estimated as follows: % SC = [1 − (Asample − Ablank)/Acontrol] ×100. Asample was the equivalent mixture of test sample and DPPH solution. Ablank was the equivalent mixture of test sample and MeOH solution. Acontrol was the equivalent mixture of DPPH and MeOH solution. The SC50 values were used to evaluate the antioxidant activities of isolated compounds. The experiments were performed in triplicate, and the data were expressed as the means ± SD of three independent experiments.

Where [8] appears, read: Homo sapiens, MKN-45, MKN45, 48 h.
Setting [9] is: RAW264.7, RAW 264.7, 1 μg/mL LPS, 24 h, mean ± SD (n = 3).

Like-named read-outs stand apart in the source and are kept apart here. Bounds are passed on as bounds.

In general, IC50 refers to the concentration that inhibits the measured activity by half. Turning to `O=C(O)/C=C/c1ccc(O)cc1` [Compound 22, p-coumaric acid], the IC50 in data set [1] (Homo sapiens), in data set [2] (Homo sapiens), in data set [3] (setting [8]), in data set [4] (Homo sapiens), in data set [5] and in data set [6] (setting [9]) was more than 200 µM each time.
Turning to `COc1cc([C@@H](O)[C@@H](CO)Oc2c(OC)cc(/C=C/CO)cc2OC)cc(OC)c1O[C@@H]1O[C@H](CO)[C@@H](O)[C@H](O)[C@H]1O` [Compound 14, picraquassioside C], the IC50 in data set [1] (Homo sapiens), in data set [2] (Homo sapiens), in data set [3] (setting [8]), in data set [4] (Homo sapiens), in data set [5] and in data set [6] (setting [9]) was more than 200 µM throughout.
As to `COc1cc(/C=C/CO)ccc1O[C@@H]1O[C@H](CO)[C@@H](O)[C@H](O)[C@H]1O` [Compound 25, coniferin], the half-maximal inhibitory concentration (IC50) in data set [1] (Homo sapiens), in data set [2] (Homo sapiens), in data set [3] (setting [8]), in data set [4] (Homo sapiens), in data set [5] and in data set [6] (setting [9]) was more than 200 µM each time.
Turning to `N.N.[Cl][Pt][Cl]` [cisplatin, reference compound], the IC50 in data set [1] is 52.8 ± 5.3 µM; in data set [2], 19.5 ± 6.7 µM; in data set [3] (MKN45, 48 h) it was 7 ± 0.3 µM; in data set [4] it was 7 ± 0.7 µM.
The matching figures for scopoletin [Compound 28]: more than 200 µM, more than 200 µM, 52.8 ± 5.3 µM and more than 200 µM.
Consider `O=c1c(O)c(-c2ccc(O)c(O)c2)oc2cc(O)cc(O)c12` [Quercetin, reference compound], for which the figures for the 50% inhibitory concentration (IC50) in data set [5] and in data set [6] (setting [9]) were more than 50 µM and 11.1 ± 1.4 µM, respectively.
Turning to `COc1cc([C@@H](OC)[C@H](O)CO)ccc1O` [Compound 26, alatusol D], the IC50 in data set [1] (Homo sapiens), in data set [2] (Homo sapiens), in data set [3] (setting [8]), in data set [4] (Homo sapiens), in data set [5] and in data set [6] (setting [9]) was more than 200 µM each time. Also, the “antioxidant activity on DPPH radical scavenging (in words)” value in data set [7] (compared with positive control ascorbic acid) is “weak antioxidant activities”. Also, the SC50 in data set [7] is 284.0 ± 16.5 µM.
`OCC1OC(OC2C(OCCc3ccccc3)OC(CO)C(O)C2O)C(O)C(O)C1O` (stereo not drawn) [Compound 8, phenethyl alcohol β-sophoroside]: the IC50 in data set [1] (Homo sapiens), in data set [2] (Homo sapiens), in data set [3] (setting [8]), in data set [4] (Homo sapiens), in data set [5] and in data set [6] (setting [9]) was more than 200 µM in each case.
Consider `COc1cc([C@H](O)[C@@H](CO)Oc2ccc(/C=C/CO)cc2OC)ccc1O[C@@H]1O[C@H](CO)[C@@H](O)[C@H](O)[C@H]1O` [Compound 15, citrusin A], for which the half-maximal inhibitory concentration (IC50) in data set [1] (Homo sapiens), in data set [2] (Homo sapiens), in data set [3] (setting [8]), in data set [4] (Homo sapiens), in data set [5] and in data set [6] (setting [9]) was more than 200 µM each time.
As to `C[C@]12CC[C@H](O)C[C@@]1(O)CCC1C2CC[C@]2(C)[C@@H](C3=CC(=O)OC3)CC[C@]12O` (stereo partly drawn) [Compound 4, perlplogemn], the half-maximal inhibitory concentration (IC50) came out at 22.2 ± 1.1 µM in data set [1]; 17.4 ± 2.4 µM in data set [2]; 9.5 ± 0.7 µM in data set [3] (MKN45, 48 h).
Regarding `COc1cc(C(O)C(CO)Oc2c(OC)cc(C3OCC4C(c5ccc(OC6OC(CO)C(O)C(O)C6O)c(OC)c5)OCC34)cc2OC)ccc1O` (stereo not drawn) [Compound 9, samsesquinoside], the IC50 in data set [1] (Homo sapiens), in data set [2] (Homo sapiens), in data set [3] (setting [8]), in data set [4] (Homo sapiens), in data set [5] and in data set [6] (setting [9]) was more than 200 µM each time. For the same molecule, the SC50 in data set [7] was 47.3 ± 2.3 µM.
In the case of `CO[C@H]1C[C@H](OC2CC[C@]3(C)C4CC[C@]5(C)[C@@H](C6=CC(=O)OC6)CC[C@]5(O)C4CC[C@]3(O)C2)O[C@H](C)[C@H]1O[C@@H]1O[C@H](CO)[C@@H](O)[C@H](O)[C@H]1O` (stereo partly drawn) [Compound 5, periplocin], the concentration for half-maximal inhibition (IC50) in data set [1] (Homo sapiens) is less than 0.1 µM; in data set [2] (Homo sapiens) it was less than 0.1 µM; in data set [3] (setting [8]) it was less than 0.1 µM; in data set [4] (Homo sapiens), less than 0.1 µM; in data set [5], more than 200 µM; in data set [6] (setting [9]), more than 200 µM.
As to `O=C1O[C@H]([C@@H](O)CO)C(O)=C1O` [Ascorbic acid, reference compound], the SC50 is 15.6 ± 0.8 µM in data set [7] and 15.5 ± 0.8 µM in data set [7] (listed as ascorbic acid).
Consider `COc1cc([C@H](O)[C@@H](CO)Oc2c(OC)cc(/C=C/CO)cc2OC)ccc1O[C@@H]1O[C@H](CO)[C@@H](O)[C@H](O)[C@H]1O` [Compound 16, citrusin B], for which the IC50 in data set [1] (Homo sapiens), in data set [2] (Homo sapiens), in data set [3] (setting [8]), in data set [4] (Homo sapiens), in data set [5] and in data set [6] (setting [9]) was more than 200 µM in each case.
With `COc1cc(/C=C/C=O)cc(OC)c1O[C@@H]1O[C@H](CO)[C@@H](O)[C@H](O)[C@H]1O` [Compound 29, sinapaldehyde glucoside], the IC50 in data set [1] (Homo sapiens) is more than 200 µM; in data set [2] (Homo sapiens), more than 200 µM; in data set [3] (setting [8]) it was more than 200 µM; in data set [4] (Homo sapiens), more than 200 µM; in data set [5], more than 200 µM; in data set [6] (RAW264.7, 24 h), more than 200 µM.
As to `COc1cc(C2Oc3c(OC)cc(CCCO)cc3C2CO)ccc1OC1OC(CO)C(O)C(O)C1O` [Compound 12, dihydrodehydro diconiferyl alcohol 4-O-β-D-glucoside], the IC50 in data set [1] (Homo sapiens), in data set [2] (Homo sapiens), in data set [3] (setting [8]), in data set [4] (Homo sapiens), in data set [5] and in data set [6] (setting [9]) was more than 200 µM each time.
Take `CC/C=C\CCO[C@@H]1O[C@H](CO)[C@@H](O)[C@H](O)[C@H]1O[C@@H]1O[C@H](CO)[C@@H](O)[C@H](O)[C@H]1O` [Compound 3, (Z)-hex-3-ene 3-O-β-D-glucopyranosyl (1→2)-β-D-glucopyranoside]: the IC50 in data set [1] (Homo sapiens), in data set [2] (Homo sapiens), in data set [3] (setting [8]), in data set [4] (Homo sapiens), in data set [5] and in data set [6] (setting [9]) was more than 200 µM in each case.
For `OCCc1ccc(O)c(O[C@@H]2O[C@H](CO)[C@@H](O)[C@H](O)[C@H]2O[C@@H]2O[C@H](CO)[C@@H](O)[C@H](O)[C@H]2O)c1` [Compound 2, 3,4-dihydroxyphenethyl alcohol 3-O-β-D-glucopyranosyl (1→2)-β-D-glucopyranoside], the IC50 in data set [1] (Homo sapiens), in data set [2] (Homo sapiens), in data set [3] (setting [8]), in data set [4] (Homo sapiens), in data set [5] and in data set [6] (setting [9]) was more than 200 µM each time.
For `COC/C=C/c1cc(OC)c2c(c1)[C@H](CO)[C@H](c1ccc(O[C@@H]3O[C@H](CO)[C@@H](O)[C@H](O)[C@H]3O)c(OC)c1)O2` [Compound 13, (7S, 8R) 9′-methoxy-dehydrodiconiferyl alcohol 4-O-β-D-glucopyranoside], the IC50 in data set [1] (Homo sapiens), in data set [2] (Homo sapiens), in data set [3] (setting [8]), in data set [4] (Homo sapiens), in data set [5] and in data set [6] (setting [9]) was more than 200 µM each time.
As for `COc1cc(/C=C/CO)cc(OC)c1O[C@@H]1O[C@H](CO)[C@@H](O)[C@H](O)[C@H]1O` [Compound 24, syringin], the IC50 was more than 200 µM in data set [1] (Homo sapiens); more than 200 µM in data set [2] (Homo sapiens); more than 200 µM in data set [3] (setting [8]); more than 200 µM in data set [4] (Homo sapiens); more than 200 µM in data set [5]; more than 200 µM in data set [6] (RAW264.7, 24 h).
